Several values for one entry are separate records, joined by “and”; a condition that tells them apart may be missing. Equal values may be shown once.
Test system: HOP-62 multicell spheroids with HUVEC/MSC, viability
Test: Anticancer human tumor HOP-62 cell line growth inhibition [KRAS2];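 note: viability read after a week of compound exposure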;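 for viability, T/C: 100% = DMSO vehicle-treated spheroids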
Settings: for viability, T/C: stronger effect = lower value
In short: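 Combination screen of spheroid viability in tumor-cell co-cultures with endothelial (HUVEC) and mesenchymal stem cell stroma. Each agent was tested in half-log dilutions, topping at clinical Cmax or at 10 microM without a known Cmax.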

[1] = curve of first compound, second compound 0.1 µM
[2] = curve of first compound, second compound 0.316 µM
[3] = curve of first compound, second compound 1 µM
[4] = curve of first compound, second compound 3.16 µM
[5] = curve of first compound, second compound 10 µM
[6] = second compound 0.1 µM, first compound 0.0316 µM
[7] = second compound 0.1 µM, first compound 0.1 µM
[8] = second compound 0.1 µM, first compound 0.316 µM
[9] = second compound 0.1 µM, first compound 1 µM
[10] = second compound 0.1 µM, first compound 3.16 µM
[11] = second compound 0.1 µM, first compound 10 µM
[12] = second compound 0.316 µM, first compound 0.0316 µM
[13] = second compound 0.316 µM, first compound 0.1 µM
[14] = second compound 0.316 µM, first compound 0.316 µM
[15] = second compound 0.316 µM, first compound 1 µM
[16] = second compound 0.316 µM, first compound 3.16 µM
[17] = second compound 0.316 µM, first compound 10 µM
[18] = second compound 1 µM, first compound 0.0316 µM
[19] = second compound 1 µM, first compound 0.1 µM
[20] = second compound 1 µM, first compound 0.316 µM
[21] = second compound 1 µM, first compound 1 µM
[22] = second compound 1 µM, first compound 3.16 µM
[23] = second compound 1 µM, first compound 10 µM
[24] = second compound 3.16 µM, first compound 0.0316 µM
[25] = second compound 3.16 µM, first compound 0.1 µM
[26] = second compound 3.16 µM, first compound 0.316 µM
[27] = second compound 3.16 µM, first compound 1 µM
[28] = second compound 3.16 µM, first compound 3.16 µM
[29] = second compound 3.16 µM, first compound 10 µM
[30] = second compound 10 µM, first compound 0.0316 µM
[31] = second compound 10 µM, first compound 0.1 µM
[32] = second compound 10 µM, first compound 0.316 µM
[33] = second compound 10 µM, first compound 1 µM
[34] = second compound 10 µM, first compound 3.16 µM
[35] = second compound 10 µM, first compound 10 µM
[36] = curve of first compound, second compound 0.0316 µM
[37] = second compound 0.0316 µM, first compound 0.0316 µM
[38] = second compound 0.0316 µM, first compound 0.1 µM
[39] = second compound 0.0316 µM, first compound 0.316 µM
[40] = second compound 0.0316 µM, first compound 1 µM
[41] = second compound 0.0316 µM, first compound 3.16 µM

Structure (SMILES) | IC50 [1] [nM] | IC50 [2] [nM] | IC50 [3] [nM] | IC50 [4] [nM] | viability, T/C [6] [%] | viability, T/C [7] [%] | viability, T/C [8] [%] | viability, T/C [9] [%] | viability, T/C [10] [%] | viability, T/C [12] [%] | viability, T/C [13] [%] | viability, T/C [14] [%] | viability, T/C [15] [%] | viability, T/C [16] [%] | viability, T/C [18] [%] | viability, T/C [19] [%] | viability, T/C [20] [%] | viability, T/C [21] [%] | viability, T/C [22] [%] | viability, T/C [24] [%] | further results
COc1cc(Nc2ncc3c(n2)-c2ccc(Cl)cc2C(c2c(F)cccc2OC)=NC3)ccc1C(=O)O + C=CC(=O)N1CCN(c2nc(=O)n(-c3c(C)ccnc3C(C)C)c3nc(-c4c(O)cccc4F)c(F)cc23)C(C)C1 | < 31.6 | < 31.6 | < 31.6 | < 31.6 | 35.3 | 29.2 | 23.2 | 23.4 | 23.3 | 42.6 | 31.5 | 31.8 | 32.6 | 21.8 | 27.6 | 38.6 | 35.4 | 31.6 | 27.7 | 37.6 | IC50 [5]: < 31.6 nM; viability, T/C [11]: 16.6%; viability, T/C [17]: 20%; viability, T/C [23]: 21.9%; viability, T/C [25]: 36.7%; viability, T/C [26]: 34%; viability, T/C [27]: 33.7%; viability, T/C [28]: 28.7%; viability, T/C [29]: 22%; viability, T/C [30]: 39.2%; viability, T/C [31]: 32.3%; viability, T/C [32]: 31.9%; viability, T/C [33]: 33%; viability, T/C [34]: 33.4%; viability, T/C [35]: 25.5%
O=C(c1cc(Cc2n[nH]c(=O)c3ccccc23)ccc1F)N1CCN(C(=O)C2CC2)CC1 | – | – | – | – | – | – | – | – | – | – | – | – | – | – | – | – | – | – | – | – | viability, T/C (compound 0.0316 µM): 105% [middle of 5 runs]; viability, T/C (compound 0.1 µM): 102% [middle of 5 runs]; viability, T/C (compound 0.316 µM): 93.2% [middle of 5 runs]; viability, T/C (compound 10 µM): 50.4% [middle of 5 runs]; IC50 (curve of compound): 4880 nM and > 10000 nM and 4580 nM
CC(C)NCC(C(=O)N1CCN(c2ncnc3c2C(C)CC3O)CC1)c1ccc(Cl)cc1 (configuration not stated) + CC1OCC2(CCN(c3cnc(Sc4ccnc(N)c4Cl)c(N)n3)CC2)C1N | 389 | 235 | 52.1 | < 31.6 | 88.7 | 81.9 | 53.5 | 27.6 | 11.3 | 65.7 | 66.2 | 43.4 | 21.7 | 8.04 | 55.9 | 42.3 | 20.5 | 7.92 | 6.64 | 37.6 | IC50 [5]: < 31.6 nM; viability, T/C [11]: 7.62%; viability, T/C [17]: 5.81%; viability, T/C [23]: 4.61%; viability, T/C [25]: 27.2%; viability, T/C [26]: 13%; viability, T/C [27]: 7.62%; viability, T/C [28]: 4.7%; viability, T/C [29]: 3.86%; viability, T/C [30]: 25.7%; viability, T/C [31]: 20.4%; viability, T/C [32]: 14.5%; viability, T/C [33]: 7.49%; viability, T/C [34]: 4.67%; viability, T/C [35]: 3.48%
CC1COCCN1c1cc(-c2ccnn2C)c2ccnc(-c3ccn[nH]3)c2n1 (configuration not stated) | – | – | – | – | – | – | – | – | – | – | – | – | – | – | – | – | – | – | – | – | viability, T/C (compound 0.316 µM): 16.9% [middle of 5 runs]; viability, T/C (compound 1 µM): 16.8% [middle of 5 runs]; viability, T/C (compound 3.16 µM): 17.2% [middle of 5 runs]
COc1cc2nccc(Oc3ccc(NC(=O)C4(C(=O)Nc5ccc(F)cc5)CC4)cc3)c2cc1OC + C=CC(=O)N1CCN(c2nc(OCC3CCCN3C)nc3c2CCN(c2cccc4cccc(C)c24)C3)CC1CC#N | 1060 | 31.6 | < 31.6 | < 31.6 | 50.5 | 51.4 | 49.5 | 53.4 | 29 | 42 | 38.5 | 47.9 | 53.8 | 24.9 | 27.4 | 31.1 | 25.3 | 30.6 | 19.9 | 0.14 | IC50 [36]: 1910 nM; viability, T/C [37]: 64.8%; viability, T/C [38]: 68.5%; viability, T/C [39]: 64%; viability, T/C [40]: 77.8%; viability, T/C [41]: 35.4%; viability, T/C (second compound 0.0316 µM, first compound 10 µM): 8.75%; viability, T/C [11]: 12%; viability, T/C [17]: 8.51%; viability, T/C [23]: 0.15%; viability, T/C [25]: 0.75%; viability, T/C [26]: 0.15%; viability, T/C [27]: 0.37%; viability, T/C [28]: 0.13%; viability, T/C [29]: 0.23%
O=C(c1cc(Cc2n[nH]c(=O)c3ccccc23)ccc1F)N1CCN(C(=O)C2CC2)CC1 + CC1OCC2(CCN(c3cnc(Sc4ccnc(N)c4Cl)c(N)n3)CC2)C1N | 6460 | 5420 | 2280 | < 31.6 | 90 | 84.3 | 80.8 | 85.4 | 66.8 | 84.2 | 83.7 | 78.6 | 69.5 | 57.6 | 101 | 70.1 | 63.7 | 65.5 | 51.2 | 44.2 | IC50 [5]: < 31.6 nM; viability, T/C [11]: 39.8%; viability, T/C [17]: 41.1%; viability, T/C [23]: 34.5%; viability, T/C [25]: 43%; viability, T/C [26]: 40.3%; viability, T/C [27]: 44.1%; viability, T/C [28]: 37%; viability, T/C [29]: 26.1%; viability, T/C [30]: 37.1%; viability, T/C [31]: 40.5%; viability, T/C [32]: 36.8%; viability, T/C [33]: 43.2%; viability, T/C [34]: 32.7%; viability, T/C [35]: 28%
CCN1CCN(Cc2ccc(Nc3ncc(F)c(-c4cc(F)c5nc(C)n(C(C)C)c5c4)n3)nc2)CC1 | – | – | – | – | – | – | – | – | – | – | – | – | – | – | – | – | – | – | – | – | viability, T/C (compound 0.00316 µM): 102% [middle of 5 runs]; viability, T/C (compound 0.01 µM): 102% [middle of 5 runs]; viability, T/C (compound 0.0316 µM): 99.7% [middle of 5 runs]; viability, T/C (compound 0.1 µM): 98.1% [middle of 5 runs]; viability, T/C (compound 0.316 µM): 86.3% [middle of 5 runs]; viability, T/C (compound 1 µM): 68% [middle of 5 runs]; IC50 (curve of compound): > 1000 nM
CC1COCCN1c1cc(-c2ccnn2C)c2ccnc(-c3ccn[nH]3)c2n1 (configuration not stated) + C=CC(=O)N1CCN(c2nc(OCC3CCCN3C)nc3c2CCN(c2cccc4cccc(C)c24)C3)CC1CC#N | 30.9 | 12.2 | < 10 | < 10 | 49.3 | 22.7 | 12 | 11.7 | 10 | 30.3 | 19.4 | 10.9 | 9.7 | 7.82 | 18.6 | 9.29 | 8.75 | 8.51 | 7.02 | 1.59 | IC50 [36]: 39.9 nM; viability, T/C (second compound 0.0316 µM, first compound 0.01 µM): 94.9%; viability, T/C [37]: 55.4%; viability, T/C [38]: 28.6%; viability, T/C [39]: 17.6%; viability, T/C [40]: 14%; viability, T/C [41]: 12.8%; viability, T/C (second compound 0.1 µM, first compound 0.01 µM): 79.4%; viability, T/C (second compound 0.316 µM, first compound 0.01 µM): 54%; viability, T/C (second compound 1 µM, first compound 0.01 µM): 27.2%; viability, T/C (second compound 3.16 µM, first compound 0.01 µM): 2.88%; viability, T/C [25]: 0.93%; viability, T/C [26]: 0.21%; viability, T/C [27]: 0.17%; viability, T/C [28]: 3.92%
CC(=O)Nc1cccc(-n2c(=O)n(C3CC3)c(=O)c3c(Nc4ccc(I)cc4F)n(C)c(=O)c(C)c32)c1 | – | – | – | – | – | – | – | – | – | – | – | – | – | – | – | – | – | – | – | – | viability, T/C (compound 0.0001 µM): 107% [middle of 5 runs]; viability, T/C (compound 0.000316 µM): 107% [middle of 5 runs]; viability, T/C (compound 0.001 µM): 87.9% [middle of 5 runs]; viability, T/C (compound 0.00316 µM): 61.7% [middle of 5 runs]; viability, T/C (compound 0.01 µM): 31% [middle of 5 runs]; viability, T/C (compound 0.0316 µM): 31.2% [middle of 5 runs]; IC50 (curve of compound): 4.9 nM [middle of 5 runs]
